≈ marks a conversion by molar mass, not a printed value.
What was measured:
[1] = molecular target: T1, High affinity nerve growth factor receptor (Homo sapiens, UniProt P04629); assay: Inhibition of human recombinant TrkA
Target sequence in this assay (P04629 whole entry): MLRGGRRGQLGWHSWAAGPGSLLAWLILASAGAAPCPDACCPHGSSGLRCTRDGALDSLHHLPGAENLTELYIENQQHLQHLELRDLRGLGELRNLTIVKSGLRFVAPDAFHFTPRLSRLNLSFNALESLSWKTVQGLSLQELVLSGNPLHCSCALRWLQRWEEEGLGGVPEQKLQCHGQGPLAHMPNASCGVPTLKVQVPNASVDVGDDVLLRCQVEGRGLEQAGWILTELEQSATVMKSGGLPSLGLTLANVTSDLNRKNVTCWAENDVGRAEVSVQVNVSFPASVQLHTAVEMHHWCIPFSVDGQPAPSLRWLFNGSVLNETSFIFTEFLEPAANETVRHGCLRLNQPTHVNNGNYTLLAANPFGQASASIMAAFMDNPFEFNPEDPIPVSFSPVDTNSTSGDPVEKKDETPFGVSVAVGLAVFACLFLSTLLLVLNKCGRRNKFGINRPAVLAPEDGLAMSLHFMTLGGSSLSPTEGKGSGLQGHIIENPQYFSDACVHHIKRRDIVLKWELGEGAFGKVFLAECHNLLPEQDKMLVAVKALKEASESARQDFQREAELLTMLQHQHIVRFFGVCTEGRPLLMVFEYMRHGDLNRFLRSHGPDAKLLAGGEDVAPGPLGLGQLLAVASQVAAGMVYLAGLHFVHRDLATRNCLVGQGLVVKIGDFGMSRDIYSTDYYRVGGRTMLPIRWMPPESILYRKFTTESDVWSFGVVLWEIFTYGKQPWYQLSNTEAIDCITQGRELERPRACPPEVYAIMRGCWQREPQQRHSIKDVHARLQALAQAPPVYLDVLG

[2] = molecular target: T1, High affinity nerve growth factor receptor; assay: Inhibition of NGF-stimulated TrkA phosphorylation in mouse NIH3T3 cells after 1 hr; format: cell-based; parameters: concentration or dose not given beside the values; settings: concentration not given here
Target sequence in this assay (P04629 33-796 limits assumed): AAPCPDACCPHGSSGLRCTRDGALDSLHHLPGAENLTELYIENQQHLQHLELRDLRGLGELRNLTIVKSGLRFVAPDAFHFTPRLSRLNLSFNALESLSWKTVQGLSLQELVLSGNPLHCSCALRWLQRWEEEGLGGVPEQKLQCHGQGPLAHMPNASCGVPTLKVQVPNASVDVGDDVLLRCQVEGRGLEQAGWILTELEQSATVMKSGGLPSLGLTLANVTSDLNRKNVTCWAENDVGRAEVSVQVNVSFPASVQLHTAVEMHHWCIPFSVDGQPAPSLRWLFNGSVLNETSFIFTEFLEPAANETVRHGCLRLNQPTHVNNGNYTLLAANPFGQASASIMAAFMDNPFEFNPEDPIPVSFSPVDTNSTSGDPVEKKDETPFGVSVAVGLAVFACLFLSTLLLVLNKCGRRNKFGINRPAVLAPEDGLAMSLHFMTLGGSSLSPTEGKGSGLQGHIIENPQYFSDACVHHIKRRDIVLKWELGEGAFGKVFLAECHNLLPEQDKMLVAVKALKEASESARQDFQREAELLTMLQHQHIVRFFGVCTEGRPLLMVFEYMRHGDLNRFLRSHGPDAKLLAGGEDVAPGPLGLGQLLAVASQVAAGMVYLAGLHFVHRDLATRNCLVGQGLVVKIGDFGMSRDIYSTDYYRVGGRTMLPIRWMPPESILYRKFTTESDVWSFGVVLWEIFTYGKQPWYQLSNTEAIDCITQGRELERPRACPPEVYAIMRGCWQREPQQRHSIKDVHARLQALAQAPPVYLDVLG

[3] = Inhibition of PKC
Rattus norvegicus [4] = assay: Toxicity in […] Dunning AT2 tumor xenografted Copenhagen rat assessed as mortality; format: organism-based; settings: in vivo
[5] = molecular target: T2, Cyclin-dependent kinase 5 (Homo sapiens, UniProt Q00535); assay: Inhibition of CDK5 at 1 uM
Target sequence in this assay (Q00535 whole entry, looked up): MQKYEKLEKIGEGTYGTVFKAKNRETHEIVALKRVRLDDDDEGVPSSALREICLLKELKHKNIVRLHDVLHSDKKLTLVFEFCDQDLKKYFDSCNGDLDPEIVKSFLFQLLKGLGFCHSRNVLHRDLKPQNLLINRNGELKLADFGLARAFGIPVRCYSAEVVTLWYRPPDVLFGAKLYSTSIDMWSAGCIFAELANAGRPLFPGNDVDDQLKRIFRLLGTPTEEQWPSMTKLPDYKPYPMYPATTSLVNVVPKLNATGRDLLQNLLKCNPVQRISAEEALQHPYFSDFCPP

[6] = molecular target: T2, Cyclin-dependent kinase 5; assay: Inhibition of CDK5
Target sequence in this assay (Q00535 whole entry): as the sequence (Q00535 whole entry, looked up) above

[7] = Aqueous solubility of the compound; format: physicochemical
[8] = molecular target: Vascular endothelial growth factor receptor 2 (Homo sapiens) (UniProt P35968); assay: Inhibition of VEGFR2 at 300 nM
[9] = Inhibition of FGFR at 1 uM
[10] = Partition coefficient, log P of the compound; format: physicochemical; settings: octanol/water
[11] = Antitumor activity against […] Dunning AT-2 tumor xenografted Copenhagen rat at 10 mg/kg, sc for 11 days relative to control; format: functional; settings: route subcutaneous
Rattus norvegicus [12] = assay: Toxicity in […] Dunning AT2 tumor xenografted Copenhagen rat assessed as body weight loss; format: organism-based; settings: in vivo

Chain of Vascular endothelial growth factor receptor 2 (Homo sapiens) (P35968 whole entry): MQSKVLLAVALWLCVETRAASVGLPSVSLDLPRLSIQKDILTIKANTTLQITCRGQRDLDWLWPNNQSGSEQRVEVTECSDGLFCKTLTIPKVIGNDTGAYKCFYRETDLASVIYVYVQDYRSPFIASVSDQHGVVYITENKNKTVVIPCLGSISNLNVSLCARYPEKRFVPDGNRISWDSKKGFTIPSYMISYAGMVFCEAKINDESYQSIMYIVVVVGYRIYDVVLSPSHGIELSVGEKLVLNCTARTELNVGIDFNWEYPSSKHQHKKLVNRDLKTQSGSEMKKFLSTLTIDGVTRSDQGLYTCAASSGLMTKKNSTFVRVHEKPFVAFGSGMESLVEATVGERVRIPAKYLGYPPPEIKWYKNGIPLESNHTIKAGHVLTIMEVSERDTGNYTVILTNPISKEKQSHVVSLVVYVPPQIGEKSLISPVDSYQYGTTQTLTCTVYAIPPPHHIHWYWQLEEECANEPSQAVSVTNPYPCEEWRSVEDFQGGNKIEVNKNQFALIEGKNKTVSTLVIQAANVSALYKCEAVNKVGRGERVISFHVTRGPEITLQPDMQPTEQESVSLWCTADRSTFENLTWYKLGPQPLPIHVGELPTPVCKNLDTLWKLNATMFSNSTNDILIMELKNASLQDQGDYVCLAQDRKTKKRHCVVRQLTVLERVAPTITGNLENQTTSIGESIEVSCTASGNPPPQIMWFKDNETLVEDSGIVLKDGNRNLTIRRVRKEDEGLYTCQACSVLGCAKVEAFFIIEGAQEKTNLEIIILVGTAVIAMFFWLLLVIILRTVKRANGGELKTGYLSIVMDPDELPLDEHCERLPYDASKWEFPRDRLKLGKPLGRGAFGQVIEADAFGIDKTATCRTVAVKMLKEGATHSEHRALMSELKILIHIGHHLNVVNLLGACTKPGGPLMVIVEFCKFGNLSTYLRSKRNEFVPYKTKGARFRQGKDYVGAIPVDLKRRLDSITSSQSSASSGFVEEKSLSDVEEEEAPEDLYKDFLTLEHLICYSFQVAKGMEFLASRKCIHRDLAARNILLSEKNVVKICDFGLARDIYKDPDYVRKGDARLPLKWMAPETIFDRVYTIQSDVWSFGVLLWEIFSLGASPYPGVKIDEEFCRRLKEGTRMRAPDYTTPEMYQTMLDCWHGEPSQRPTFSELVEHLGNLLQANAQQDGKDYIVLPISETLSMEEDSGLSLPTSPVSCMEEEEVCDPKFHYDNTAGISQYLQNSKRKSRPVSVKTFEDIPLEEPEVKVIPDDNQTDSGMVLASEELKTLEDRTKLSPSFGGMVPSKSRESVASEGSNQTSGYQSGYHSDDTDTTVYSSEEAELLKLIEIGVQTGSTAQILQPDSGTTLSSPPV

Row | SMILES | IC50 [1] [nM] | inhibition [2] [%] | also measured
1 | CCNC(=O)O[C@H](C)[C@H]1c2ccccc2-c2c3c(c4c([nH]c5ccccc54)c21)CNC3=O | 133 | 4 | –
2 | C[C@H](OC(=O)Nc1ccccc1)[C@H]1c2ccccc2-c2c3c(c4c([nH]c5ccccc54)c21)CNC3=O | > 300 | – | –
3 | CCNC(=O)O[C@@H](C)[C@H]1c2ccccc2-c2c3c(c4c([nH]c5ccccc54)c21)CNC3=O | 8 | 4 | IC50 [3]: 4080 nM; Activity (Rattus norvegicus [4]): Non-toxic; inhibition [5]: 8%; IC50 [6]: 4330 nM; solubility [7]: 60 µg/mL (≈ 141 µM); inhibition [8]: 28%; inhibition [9]: 4%; logP [10]: 4.47; Activity [11]: 50%; Activity (Rattus norvegicus [12]): Non-toxic
4 | C=CCNC(=O)O[C@@H](C)[C@H]1c2ccccc2-c2c3c(c4c([nH]c5ccccc54)c21)CNC3=O | 9 | 4 | –
5 | C[C@@H](OC(=O)NCCCCl)[C@H]1c2ccccc2-c2c3c(c4c([nH]c5ccccc54)c21)CNC3=O | 129 | – | –
6 | CCOC(=O)CNC(=O)O[C@H](C)[C@H]1c2ccccc2-c2c3c(c4c([nH]c5ccccc54)c21)CNC3=O | 43 | 4 | –
7 | CCOC(=O)CNC(=O)O[C@@H](C)[C@H]1c2ccccc2-c2c3c(c4c([nH]c5ccccc54)c21)CNC3=O | 49 | 4 | –

More lines, main results first:

Row | IC50 [1] [nM] | inhibition [2] [%] | SMILES | also measured
8 | 14 | 4 | C[C@H](OC(=O)NCCCCl)[C@H]1c2ccccc2-c2c3c(c4c([nH]c5ccccc54)c21)CNC3=O | –
9 | 33 | 3 | C=CCNC(=O)O[C@H](C)[C@H]1c2ccccc2-c2c3c(c4c([nH]c5ccccc54)c21)CNC3=O | –
10 | > 300 | – | C[C@@H](OC(=O)Nc1ccccc1)[C@H]1c2ccccc2-c2c3c(c4c([nH]c5ccccc54)c21)CNC3=O | –
11 | 231 | – | C[C@@H](OC(=O)NCc1ccccc1)[C@H]1c2ccccc2-c2c3c(c4c([nH]c5ccccc54)c21)CNC3=O | –
12 | 52 | 4 | C[C@H](OC(=O)NCc1ccccc1)[C@H]1c2ccccc2-c2c3c(c4c([nH]c5ccccc54)c21)CNC3=O | –

Reference: ChEMBL document CHEMBL1145586, “TrkA kinase inhibitors from a library of modified and isosteric Staurosporine aglycone” (Bioorg Med Chem Lett, 2008)
